Reference: BigSolDB 2.1

N#Cc1ccccc1-c1ccc(CBr)cc1
solubility (mole fraction)
Conditions	278.15 K	283.15 K	288.15 K	293.15 K	298.15 K	303.15 K	308.15 K	313.15 K
in acetone	0.0151	0.0169	0.0214	0.0241	0.0306	0.0352	0.0424	0.0492
in n-propanol	0.00052	0.00075	0.00099	0.00126	0.00181	0.00226	0.0027	0.00343
